Test [1] has as its system hypoxemia model animals. Nature of the test: Effect on partial pressure value of gases in arterial blood, injection system, Method B (acetic acid induced respiratory insufficiency). Type of test: in vivo, rat (Male Wister strain). As to conditions: continuous i.v. 0.1 mg/kg/min., 10 min.; for Activity for Decreasing PaCO2: increment PaCO2: PaCO2 after minus before administration; for Activity for Increasing PaO2: increment PaO2: PaO2 after minus before administration. How it is done:
Effect on Partial Pressure Value of Gases in Arterial Blood (Injection system) <Method B> Male Wister strain rats (body about 300 g) were anesthetized with halothane inhalant, and then 2.0% acetic acid was […] injected at 0.6 ml/kg to induce a respiratory insufficiency. The animals were intra-peritoneally anesthetized with urethane-α-chloralose, and a cannula was inserted into the femoral artery. After the hypoxemic state (PaO2 : 60-70 mmHg) was observed a compound in accordance with the present invention (test substance) was continuously intravenously injected into these hypoxemia model animals (0.1 mg/kg/min., 10 min.), and then a partial pressure value of gases (PaO2, PaCO2) in arterial blood was immediately determined.

Test [2] has as its system hypoxemia state rats. The experiment in a line: Effect on partial pressure value of gases in arterial blood, oral administration system, Method A (acetic acid induced hypoxemia, about 60 min). To be noted: 60 min. after administration. Type of test: in vivo, rat (Male Wistar strain). How it is done: Effect on Partial Pressure Value of Gases in Arterial Blood (Oral Administration System) Method A Male Wistar strain rats (body weight about 250 g) fasted overnight were anesthetized with halothane inhalant, and a cannula then inserted into the femoral artery. After the animals recovered from the anesthesia, they were again anesthetized with halothane inhalant, and then 2.0% acetic acid was […] injected at 0.8 ml/kg to induce a hypoxemia state. After the hypoxemic state (PaO2 :60-80 mmHg) was observed over about 60 min., a compound in accordance with the present invention (test substance, 10 or 30 mg/kg) was orally administered to the animals. Then 60 min. after the administration, the partial pressure value of gases (PaO2, PaCO2) in arterial blood was determined.

Test [3] has as its system hypoxemia model animals. Nature of the test: Effect on partial pressure value of gases in arterial blood, injection system, Method A (carbon powder induced hypoxemia). Type of test: in vivo, rat (Male Wister strain). As to conditions: continuous i.v. 0.1 mg/kg/min., 10 min.; for Activity for Decreasing PaCO2: increment PaCO2: PaCO2 after minus before administration; for Activity for Increasing PaO2: increment PaO2: PaO2 after minus before administration. The procedure:
Effect on Partial Pressure Value of Gases in Arterial Blood (Injection system)
Male Wister strain rats (body weight about 300 g) were anesthetized intra-peritoneally with urethane, and a cannula was inserted into the respiratory tract and the femoral artery, respectively. A suspension (30-100 μm, 10 mg/ml) of carbon powder in a corn oil was intratrachealy injected to induce a hypoxemia state (PaO2; 50-60 mmHg). A compound in accordance with the present invention was continuously intravenously injected into these hypoxemia model animals (0.1 mg/kg/min., 10 min.), and then a partial pressure value of gases (PaO2, PaCO2) in arterial blood was immediately determined.

The test system of test [4] is hypoxemia animals. Nature of the test: Effect on partial pressure value of gases in arterial blood, oral administration system, Method B (3 days after acetic acid). As to conditions: 60 min. after administration. It counts as in vivo, rat (Male wistar strain). How it is done: Effect on Partial Pressure Value of Gases in Arterial Blood (Oral Administration System)
Male wistar strain rats (body weight about 350 g) were anesthetized with halothane inhalant, and then 2.0% acetic acid were intratrachealy injected at 0.6 ml/kg body to induce a hypoxemia state. In 3 days after injection with 2.0% acetic acid, rats fasted overnight were anesthetized with halothane inhalant, and a cannula inserted into the femoral artery. After these hypoxemia animals (PaO2 : 60-80 mmHg) were recovered from the anesthesia, a compound in accordance with the present invention (test substance, 10 or 30 mg/kg) was orally administered to the animals. At 60 min. after the administration, the partial pressure value of gases (PaO2, PaCO2) in arterial blood was determined.

Turning to `C=CCNc1nc(NC(C)c2ccccc2)c2ccn(C)c2n1.Cl` (racemic) [Compound 156, (±)-2-allylamino-7-methyl-4-(1-phenylethylamino)-7H-pyrrolo[2,3-d]pyrimidine hydrochloride], the “Activity for Decreasing PaCO2: increment PaCO2” value (“Activity for Decreasing PaCO2” for short) in test [1] is given as -9.1 mmHg. Besides, in test [2] (30 mg/kg), the “Activity for Decreasing PaCO2” value was -8.1 mmHg and the “Activity for Increasing PaO2: increment PaO2” value (from here on “Activity for Increasing PaO2”) was “+7.8 mmHg”.

As for `C=CCNc1nc(N2CCC(OC(C)=O)CC2)c2ccn(C)c2n1` [Compound 119], in test [3], the “Activity for Decreasing PaCO2” value is listed as -2.6 mmHg and the “Activity for Increasing PaO2” value was “+7.1 mmHg”.

As to `C=CCNc1nc(N2CCOCC2)c2ccn(C)c2n1` [Compound 124], the “Activity for Decreasing PaCO2” value is listed as -2.5 mmHg in test [4] (30 mg/kg) and -4.0 mmHg in test [1]. Moreover, the entries for the “Activity for Increasing PaO2” value in test [4] (30 mg/kg) and in test [1] were “+8.0 mmHg” and “+5.7 mmHg”, respectively.

Take `C=CCNc1nc(N2CCN(C(c3ccc(F)cc3)c3ccc(F)cc3)CC2)c2ccn(C)c2n1` [Compound 133]: in test [3], the “Activity for Decreasing PaCO2” value was -0.6 mmHg and the “Activity for Increasing PaO2” value is on record as “+6.9 mmHg”.

Turning to `C=CCNc1nc(N2CCN(C(c3ccc(F)cc3)c3ccc(F)cc3)CC2)c2ccn(CC=C)c2n1` [Compound 143], in test [3], the “Activity for Decreasing PaCO2” value is given as “+1.1 mmHg” and the “Activity for Increasing PaO2” value is recorded as “+5.0 mmHg”.

Turning to `C=CCNc1nc(N(C)C)c2ccn(C)c2n1` [Compound 165], in test [1], the “Activity for Decreasing PaCO2” value is reported as “+1.1 mmHg” and the “Activity for Increasing PaO2” value is “+7.9 mmHg”. Further, in test [2] (30 mg/kg), the “Activity for Decreasing PaCO2” value is reported as -3.4 mmHg and the “Activity for Increasing PaO2” value is reported as “+8.5 mmHg”.

For the molecule `C=CCNc1nc(N(C)CCc2ccccc2)c2ccn(C)c2n1` [Compound 167], the “Activity for Decreasing PaCO2” value in test [1] was -6.6 mmHg.

On to `C=CCNc1nc(NCc2ccco2)c2ccn(C)c2n1` [Compound 172], for which, in test [1], the “Activity for Decreasing PaCO2” value was -2.8 mmHg and the “Activity for Increasing PaO2” value was “+12.3 mmHg”.

For `C=CCNc1nc(NCCCc2ccco2)c2ccn(C)c2n1` [Compound 173], in test [1], the “Activity for Decreasing PaCO2” value is on record as -13.1 mmHg and the “Activity for Increasing PaO2” value is reported as “+12.0 mmHg”. Moreover, in test [2] (10 mg/kg), the “Activity for Decreasing PaCO2” value is reported as -3.7 mmHg and the “Activity for Increasing PaO2” value was “+4.2 mmHg”.

Regarding `C=CCNc1nc(NCc2cccs2)c2ccn(C)c2n1` [Compound 174], in test [1], the “Activity for Decreasing PaCO2” value is -2.9 mmHg and the “Activity for Increasing PaO2” value is listed as “+5.8 mmHg”.

Turning to `C=CCNc1nc(NCCc2ccc(OC)cc2)c2ccn(C)c2n1` [Compound 175], in test [1], the “Activity for Decreasing PaCO2” value was -13.1 mmHg and the “Activity for Increasing PaO2” value is listed as “+15.2 mmHg”.

On to `C=CCNc1nc(NC(C)C)c2ccn(C)c2n1` [Compound 176], for which, in test [4] (10 mg/kg), the “Activity for Decreasing PaCO2” value is on record as -5.4 mmHg and the “Activity for Increasing PaO2” value is “+11.6 mmHg”. Moreover, in test [1], the “Activity for Decreasing PaCO2” value was -14.8 mmHg and the “Activity for Increasing PaO2” value is “+22.2 mmHg”.

For `C=CCNc1nc(NC(C)(C)C)c2ccn(C)c2n1` [Compound 178], in test [4] (10 mg/kg), the “Activity for Decreasing PaCO2” value is given as -6.6 mmHg and the “Activity for Increasing PaO2” value is recorded as “+17.0 mmHg”. Also, in test [1], the “Activity for Decreasing PaCO2” value was -16.4 mmHg and the “Activity for Increasing PaO2” value is listed as “+16.4 mmHg”.

As to `C=CCNc1nc(NCC2CCCO2)c2ccn(C)c2n1` (stereo not drawn) [Compound 179], in test [1], the “Activity for Decreasing PaCO2” value is given as “+2.4 mmHg” and the “Activity for Increasing PaO2” value is “+8.5 mmHg”.

As to `C=CCNc1nc(N2CCC(OC)CC2)c2ccn(C)c2n1` [Compound 180], in test [1], the “Activity for Decreasing PaCO2” value is -0.5 mmHg and the “Activity for Increasing PaO2” value was “+6.5 mmHg”.

On to `C=CCNc1nc(N(CCOCC)CCOCC)c2ccn(C)c2n1` [Compound 181], for which, in test [1], the “Activity for Decreasing PaCO2” value is given as “+1.2 mmHg” and the “Activity for Increasing PaO2” value was “+6.4 mmHg”.

With `C=CCNc1nc(N2CCCCC2C)c2ccn(C)c2n1` (stereo not drawn) [Compound 182], in test [4] (30 mg/kg), the “Activity for Decreasing PaCO2” value is -2.2 mmHg and the “Activity for Increasing PaO2” value was “+3.3 mmHg”.

`C=CCNc1nc(N2C(C)CCCC2C)c2ccn(C)c2n1` (stereo not drawn) [Compound 183]: in test [1], the “Activity for Decreasing PaCO2” value is -4.6 mmHg and the “Activity for Increasing PaO2” value is “+10.7 mmHg”.

For `C=CCNc1nc(NC(COC)COC)c2ccn(C)c2n1` [Compound 184], in test [1], the “Activity for Decreasing PaCO2” value is -0.7 mmHg and the “Activity for Increasing PaO2” value is “+7.8 mmHg”.

Regarding `C=CCNc1nc(N[C@H]2CC[C@@H](OC)CC2)c2ccn(C)c2n1` [Compound 185], in test [1], the “Activity for Decreasing PaCO2” value is given as -6.0 mmHg and the “Activity for Increasing PaO2” value is “+11.7 mmHg”.

As for `C=CCNc1nc(N[C@H]2CC[C@H](OC)CC2)c2ccn(C)c2n1` [Compound 186], in test [4] (10 mg/kg), the “Activity for Decreasing PaCO2” value is on record as -5.3 mmHg and the “Activity for Increasing PaO2” value is reported as “+14.9 mmHg”. In test [1], the “Activity for Decreasing PaCO2” value was -15.4 mmHg and the “Activity for Increasing PaO2” value was “+12.3 mmHg”.

For `C=CCNc1nc(N[C@H]2CC[C@H](OCCOCC)CC2)c2ccn(C)c2n1` [Compound 187], in test [4] (10 mg/kg), the “Activity for Decreasing PaCO2” value was “+6.9 mmHg” and the “Activity for Increasing PaO2” value is “+16.0 mmHg”. Further, in test [1], the “Activity for Decreasing PaCO2” value is -14.7 mmHg and the “Activity for Increasing PaO2” value was “+13.7 mmHg”.

Regarding `C=CCNc1nc(N(C)[C@H]2CC[C@H](OC)CC2)c2ccn(C)c2n1` [Compound 189], in test [1], the “Activity for Decreasing PaCO2” value is -6.0 mmHg and the “Activity for Increasing PaO2” value was “+7.3 mmHg”.

These data come from patent US5661148A, “Pyrrolo[2,3-d]pyrimidine derivatives, process for producing the same and pharmaceutical preparation comprising the same as active ingredient” (Teijin Limited, priority 1989, dated 1997).
